Test results reported in the supplement of paper PMC11208160.

Assay: recombinant UMI read abundance after kanamycin selection (control-corrected) (log10(CPM+1)); higher = more efficient recombination; extreme values may be limits of the assay; sequences stand for … in AGTGCAGAGAAAATCGGCCAGTTTTCTCTGCCTGCAGTCCGCATGCCGTGGGACCCCTTGGGTTCTAACCTGTTGCCTAGATTTATGCAGCGGACTGCCTTTCTCCCAAAGTGATAAACCGG…AGGTTGGTTTCACT; site = the 11-nt donor
Method in brief: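 Values, expressed as log10(CPM+1), derive from recombinant UMI counts converted to CPM, averaged across replicates and scaled by control-derived factors. Plating was with IPTG (0.07 mM) plus kanamycin or unselected, two replicates each. The screen pooled donor and donor-binding-loop pairs for the IS621 bridge recombinase in Escherichia coli.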
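Further: IS621 bridge recombinase in Escherichia coli cells against a fixed T5 target plasmid.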

For “TCATACTCATGGACCGGTTTTCCCGGTAATCCGTATTTGCC (site TCATACTCTTG)”, which “recombinant UMI read abundance (log10)” value is on record?
Its value is 0.

Which “recombinant UMI read abundance (log10)” value does the source give for “TCATACTCATGGACCGGTTTTCCCGGTAATCCGTATTTGCT (site TCATACTCTAG)” here?
Its value is 2.47.

For “TCATACTCATGGACCGGTTTTCCCGGTAATCCGTATTTGCT (site TCATACTCTCG)”, which “recombinant UMI read abundance (log10)” value is on record?
The value was 0.

With “TCATACTCATGGACCGGTTTTCCCGGTAATCCGTATTTGCT (site TCATACTCTGG)” as the sequence, how does the “recombinant UMI read abundance (log10)” value read?
The value was 0.

With “TCATACTCATGGACCGGTTTTCCCGGTAATCCGTATTTGCT (site TCATACTCTTG)” as the sequence, how does the “recombinant UMI read abundance (log10)” value read?
The value was 0.

With “TCATATACATGGACCGGTTTTCCCGGTAATCCGTATTTGCA (site TCATATACTTG)” as the sequence, how does the “recombinant UMI read abundance (log10)” value read?
Its value is 0.743.

Which “recombinant UMI read abundance (log10)” value does the source give for “TCATATACATGGACCGGTTTTCCCGGTAATCCGTATTTGGA (site TCATATACTTC)” here?
Its value is 0.727.

Which “recombinant UMI read abundance (log10)” value does the source give for “TCATCGGCATGGACCGGTTTTCCCGGTAATCCGTATTTGAG (site TCATCGGCTCT)” here?
The value was 0.699.

With “TCATCTACATGGACCGGTTTTCCCGGTAATCCGTATTTGTG (site ACATCTACTCA)” as the sequence, how does the “recombinant UMI read abundance (log10)” value read?
The value was 0.0432.

With “TCATCTACATGGACCGGTTTTCCCGGTAATCCGTATTTGTG (site CCATCTACTCA)” as the sequence, how does the “recombinant UMI read abundance (log10)” value read?
Its value is 0.00835.

Which “recombinant UMI read abundance (log10)” value does the source give for “TCATCTACATGGACCGGTTTTCCCGGTAATCCGTATTTGTG (site GCATCTACTCA)” here?
Its value is 0.0109.

With “TCATCTACATGGACCGGTTTTCCCGGTAATCCGTATTTGTG (site TCATCTACTCA)” as the sequence, how does the “recombinant UMI read abundance (log10)” value read?
Its value is 0.00873.

For “TCATGGTCATGGACCGGTTTTCCCGGTAATCCGTATTTGTT (site TCATGGTCTAA)”, which “recombinant UMI read abundance (log10)” value is on record?
Its value is 0.48.

With “TCCAAAGCATGGACCGGTTTTCCCGGTAATCCGTATTTGAC (site GTACCGCCTAG)” as the sequence, how does the “recombinant UMI read abundance (log10)” value read?
Its value is 0.

With “TCCAACTCATGGACCGGTTTTCCCGGTAATCCGTATTTGCC (site TCCAAATCTGG)” as the sequence, how does the “recombinant UMI read abundance (log10)” value read?
Its value is 0.

With “TCCAACTCATGGACCGGTTTTCCCGGTAATCCGTATTTGCC (site TCCAACTCTGG)” as the sequence, how does the “recombinant UMI read abundance (log10)” value read?
The value was 0.

With “TCCAACTCATGGACCGGTTTTCCCGGTAATCCGTATTTGCC (site TCCAAGTCTGG)” as the sequence, how does the “recombinant UMI read abundance (log10)” value read?
Its value is 0.

Which “recombinant UMI read abundance (log10)” value does the source give for “TCCAACTCATGGACCGGTTTTCCCGGTAATCCGTATTTGCC (site TCCAATTCTGG)” here?
The value was 0.

For “TCCAATTCATGGACCGGTTTTCCCGGTAATCCGTATTTGCC (site ACCAATTCTGG)”, which “recombinant UMI read abundance (log10)” value is on record?
Its value is 0.

With “TCCAATTCATGGACCGGTTTTCCCGGTAATCCGTATTTGCC (site CCCAATTCTGG)” as the sequence, how does the “recombinant UMI read abundance (log10)” value read?
The value was 0.

With “TCCAATTCATGGACCGGTTTTCCCGGTAATCCGTATTTGCC (site GCCAATTCTGG)” as the sequence, how does the “recombinant UMI read abundance (log10)” value read?
Its value is 0.

With “TCCAATTCATGGACCGGTTTTCCCGGTAATCCGTATTTGCC (site TACAATTCTGG)” as the sequence, how does the “recombinant UMI read abundance (log10)” value read?
Its value is 0.

Which “recombinant UMI read abundance (log10)” value does the source give for “TCCAATTCATGGACCGGTTTTCCCGGTAATCCGTATTTGCC (site TCAAATTCTGG)” here?
Its value is 0.

With “TCCAATTCATGGACCGGTTTTCCCGGTAATCCGTATTTGCC (site TCCAAATCTGG)” as the sequence, how does the “recombinant UMI read abundance (log10)” value read?
The value was 0.

For “TCCAATTCATGGACCGGTTTTCCCGGTAATCCGTATTTGCC (site TCCAACTCTGG)”, which “recombinant UMI read abundance (log10)” value is on record?
Its value is 0.

With “TCCAATTCATGGACCGGTTTTCCCGGTAATCCGTATTTGCC (site TCCAAGTCTGG)” as the sequence, how does the “recombinant UMI read abundance (log10)” value read?
Its value is 0.

Which “recombinant UMI read abundance (log10)” value does the source give for “TCCAATTCATGGACCGGTTTTCCCGGTAATCCGTATTTGCC (site TCCAATACTGG)” here?
The value was 0.

With “TCCAATTCATGGACCGGTTTTCCCGGTAATCCGTATTTGCC (site TCCAATCCTGG)” as the sequence, how does the “recombinant UMI read abundance (log10)” value read?
The value was 0.

For “TCCAATTCATGGACCGGTTTTCCCGGTAATCCGTATTTGCC (site TCCAATGCTGG)”, which “recombinant UMI read abundance (log10)” value is on record?
The value was 0.

With “TCCAATTCATGGACCGGTTTTCCCGGTAATCCGTATTTGCC (site TCCAATTCTAG)” as the sequence, how does the “recombinant UMI read abundance (log10)” value read?
Its value is 0.

Which “recombinant UMI read abundance (log10)” value does the source give for “TCCAATTCATGGACCGGTTTTCCCGGTAATCCGTATTTGCC (site TCCAATTCTCG)” here?
The value was 0.

With “TCCAATTCATGGACCGGTTTTCCCGGTAATCCGTATTTGCC (site TCCAATTCTGC)” as the sequence, how does the “recombinant UMI read abundance (log10)” value read?
Its value is 0.

For “TCCAATTCATGGACCGGTTTTCCCGGTAATCCGTATTTGCC (site TCCAATTCTGG)”, which “recombinant UMI read abundance (log10)” value is on record?
The value was 0.

For “TCCAATTCATGGACCGGTTTTCCCGGTAATCCGTATTTGCC (site TCCAATTCTGT)”, which “recombinant UMI read abundance (log10)” value is on record?
The value was 0.

With “TCCAATTCATGGACCGGTTTTCCCGGTAATCCGTATTTGCC (site TCCAATTCTTG)” as the sequence, how does the “recombinant UMI read abundance (log10)” value read?
The value was 0.

For “TCCAATTCATGGACCGGTTTTCCCGGTAATCCGTATTTGCC (site TCCACTTCTGG)”, which “recombinant UMI read abundance (log10)” value is on record?
The value was 0.

Which “recombinant UMI read abundance (log10)” value does the source give for “TCCAATTCATGGACCGGTTTTCCCGGTAATCCGTATTTGCC (site TCCAGTTCTGG)” here?
Its value is 0.

Which “recombinant UMI read abundance (log10)” value does the source give for “TCCAATTCATGGACCGGTTTTCCCGGTAATCCGTATTTGCC (site TCCATTTCTGG)” here?
The value was 0.

Which “recombinant UMI read abundance (log10)” value does the source give for “TCCAATTCATGGACCGGTTTTCCCGGTAATCCGTATTTGCC (site TCCCATTCTGG)” here?
The value was 0.

Which “recombinant UMI read abundance (log10)” value does the source give for “TCCAATTCATGGACCGGTTTTCCCGGTAATCCGTATTTGCC (site TCCGATTCTGG)” here?
Its value is 0.

Which “recombinant UMI read abundance (log10)” value does the source give for “TCCAATTCATGGACCGGTTTTCCCGGTAATCCGTATTTGCC (site TCCTATTCTGG)” here?
The value was 0.

For “TCCAATTCATGGACCGGTTTTCCCGGTAATCCGTATTTGCC (site TCGAATTCTGG)”, which “recombinant UMI read abundance (log10)” value is on record?
The value was 0.

For “TCCAATTCATGGACCGGTTTTCCCGGTAATCCGTATTTGCC (site TCTAATTCTGG)”, which “recombinant UMI read abundance (log10)” value is on record?
The value was 0.

Which “recombinant UMI read abundance (log10)” value does the source give for “TCCAATTCATGGACCGGTTTTCCCGGTAATCCGTATTTGCC (site TGCAATTCTGG)” here?
The value was 0.

Which “recombinant UMI read abundance (log10)” value does the source give for “TCCAATTCATGGACCGGTTTTCCCGGTAATCCGTATTTGCC (site TTCAATTCTGG)” here?
Its value is 0.

Which “recombinant UMI read abundance (log10)” value does the source give for “TCCAATTCATGGACCGGTTTTCCCGGTAATCCGTATTTGTC (site TCCAATTCTGA)” here?
Its value is 0.

With “TCCAATTCATGGACCGGTTTTCCCGGTAATCCGTATTTGTC (site TCCAATTCTGC)” as the sequence, how does the “recombinant UMI read abundance (log10)” value read?
Its value is 0.

For “TCCAATTCATGGACCGGTTTTCCCGGTAATCCGTATTTGTC (site TCCAATTCTGG)”, which “recombinant UMI read abundance (log10)” value is on record?
The value was 0.

Which “recombinant UMI read abundance (log10)” value does the source give for “TCCAATTCATGGACCGGTTTTCCCGGTAATCCGTATTTGTC (site TCCAATTCTGT)” here?
The value was 0.

For “TCCACCGCATGGACCGGTTTTCCCGGTAATCCGTATTTGCC (site TCCACCGCTAG)”, which “recombinant UMI read abundance (log10)” value is on record?
The value was 0.0325.

Which “recombinant UMI read abundance (log10)” value does the source give for “TCCACCGCATGGACCGGTTTTCCCGGTAATCCGTATTTGCC (site TCCACCGCTCG)” here?
Its value is 0.0335.

Which “recombinant UMI read abundance (log10)” value does the source give for “TCCACCGCATGGACCGGTTTTCCCGGTAATCCGTATTTGCC (site TCCACCGCTGG)” here?
The value was 0.
